These results are taken from publication PMC4834642, “Orthogonal ring-closing alkyne and olefin metathesis for the synthesis of small GTPase-targeting bicyclic peptides” (Nature Communications, 2016).

For one test, the target named is T1, Rab8a6-176(GppNHp) (Homo sapiens, UniProt P61006).
T1 construct: Expression and purification of Rab8a6-176 was performed analog to full-length Rab8a; made in house
T1 sequence (P61006 6-176): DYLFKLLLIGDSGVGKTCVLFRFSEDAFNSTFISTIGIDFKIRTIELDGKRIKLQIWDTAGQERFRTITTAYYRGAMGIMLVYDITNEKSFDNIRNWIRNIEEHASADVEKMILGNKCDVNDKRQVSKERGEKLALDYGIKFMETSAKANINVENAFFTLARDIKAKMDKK
Put plainly: Competition fluorescence polarization assay (displacement of labelled peptide 25). Format: binding. The note with it: for Competition with labelled peptide 25 (in words): excess of acetylated peptide added to complex of labelled peptide 25 and Rab8a6-176(GppNHp). The protocol: Acetylated peptides were serially diluted and incubated with a mixture of the fluorescein-labelled peptide and Rab8a6–176 (GppNHp) at room temperature for 1 h. Fluorescence polarization was determined and IC50 values were calculated by nonlinear regression analysis using Prism 5.0 software (GraphPad)[64].
Rab8a6-176 (GppNHp) was serially diluted in assay buffer and treated with 133 nM fluorescein-labeled peptide. After incubation for 4 h at room temperature the mixture was soaked into capillaries for microscale thermophoresis (MST) measurements. Kd values were calculated after initial fluorescene analysis of the obtained MST curves using the software Monolith Affinity Analysis (NanoTemper Technologies).
Competition fluorescence polarization assay
Acetylated peptides were serially diluted in assay buffer (1:1) and were incubated with a mixture of […] fluorescein-labeled peptide and Rab8a6-176 (GppNHp) (15 µM or 100 µM depending on Kd of the labeled peptide) for 1 h at room temperature.
Fluorescence polarization was dertermined and half maximal inhibitory concentrations (IC50) were calculated by nonlinear regression analysis of dose-response curves using Prism 5.0 software (GraphPad).5

A further test concerns the target T2, peptide 28 (Homo sapiens, UniProt Q6IQ26).
T2 chain: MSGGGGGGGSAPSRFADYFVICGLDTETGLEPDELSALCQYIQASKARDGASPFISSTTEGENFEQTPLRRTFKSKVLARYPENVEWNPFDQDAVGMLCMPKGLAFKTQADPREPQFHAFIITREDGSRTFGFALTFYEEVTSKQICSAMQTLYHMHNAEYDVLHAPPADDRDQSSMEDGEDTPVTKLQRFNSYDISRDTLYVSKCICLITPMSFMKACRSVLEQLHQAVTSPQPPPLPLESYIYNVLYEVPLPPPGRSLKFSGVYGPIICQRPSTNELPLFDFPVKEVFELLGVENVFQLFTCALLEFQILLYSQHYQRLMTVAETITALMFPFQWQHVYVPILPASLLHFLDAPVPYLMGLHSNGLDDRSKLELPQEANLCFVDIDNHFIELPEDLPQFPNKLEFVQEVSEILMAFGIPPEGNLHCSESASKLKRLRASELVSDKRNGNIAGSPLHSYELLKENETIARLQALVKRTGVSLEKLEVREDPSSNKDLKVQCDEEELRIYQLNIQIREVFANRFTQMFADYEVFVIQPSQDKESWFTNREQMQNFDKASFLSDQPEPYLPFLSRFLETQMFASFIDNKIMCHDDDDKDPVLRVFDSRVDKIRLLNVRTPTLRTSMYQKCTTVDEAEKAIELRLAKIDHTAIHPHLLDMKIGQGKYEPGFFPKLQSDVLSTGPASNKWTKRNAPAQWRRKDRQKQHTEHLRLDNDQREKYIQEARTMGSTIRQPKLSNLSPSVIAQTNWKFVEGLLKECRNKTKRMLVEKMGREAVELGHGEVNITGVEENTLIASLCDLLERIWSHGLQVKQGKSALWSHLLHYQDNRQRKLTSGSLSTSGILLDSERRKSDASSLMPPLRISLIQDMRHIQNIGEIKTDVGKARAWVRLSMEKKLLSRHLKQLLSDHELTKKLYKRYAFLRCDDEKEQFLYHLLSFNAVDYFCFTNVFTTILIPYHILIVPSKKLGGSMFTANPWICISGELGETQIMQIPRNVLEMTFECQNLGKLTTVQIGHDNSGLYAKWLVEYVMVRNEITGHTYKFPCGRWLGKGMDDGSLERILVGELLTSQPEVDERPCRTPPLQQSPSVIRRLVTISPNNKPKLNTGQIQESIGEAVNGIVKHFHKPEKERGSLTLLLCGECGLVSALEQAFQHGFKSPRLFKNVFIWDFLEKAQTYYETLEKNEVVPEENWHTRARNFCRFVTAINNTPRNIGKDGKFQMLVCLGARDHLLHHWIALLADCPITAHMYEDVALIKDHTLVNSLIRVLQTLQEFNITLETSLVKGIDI
In words: fluorescence polarization. A general note: In fluorescence polarisation assays a small probe gives low polarisation when free and higher when bound to something large.

Bridge positions count the residues as written; N and C are the ends. Square brackets hold non-standard residues; d marks the D form. Peptide text beside a SMILES is read from it. S5 = C=CCCC[C@](C)(N)C(=O)O

Consider `CC(=O)N[C@@H](CC(=O)O)C(=O)N[C@@H](CC(=O)O)C(=O)N[C@@H](CCC(=O)O)C(=O)N[C@@]1(C)CCC/C=C\CCC[C@@](C)(C(=O)N[C@@H](Cc2ccc(O)cc2)C(=O)N[C@@H](Cc2c[nH]cn2)C(=O)N[C@@H](CC(C)C)C(=O)N[C@@H](CC(C)C)C(=O)N[C@@H](CO)C(=O)N[C@@H](Cc2ccccc2)C(=O)N[C@@H](CC(N)=O)C(=O)N[C@@H](C)C(=O)N[C@H](C(N)=O)C(C)C)NC(=O)[C@H](Cc2ccccc2)NC(=O)[C@H](CCC(N)=O)NC(=O)[C@H](CCC(=O)O)NC1=O` [acetylated StRIP3] (Ac-DDE[S5]EQF[S5]YHLLSFNAV-NH2; staple (Z) 4-8; C-terminus assumed), for which the IC50 at Rab8a6-176(GppNHp) (acetylated peptide as competitor, fluorescein-labelled peptide 25 (60 nM) bound to Rab8a(GppNHp) 15 μM, 1 h room temperature, triplicates, errors 1σ) is 33 µM. For the same molecule, at Rab8a6-176(GppNHp), the “Competition with labelled peptide 25 (in words)” value is “full displacement of peptide 25”.

Take `CC(=O)N[C@@H](CC(=O)O)C(=O)N[C@@H](CC(=O)O)C(=O)N[C@@H](CCC(=O)O)C(=O)N[C@@H](CCCCN)C(=O)N[C@@H](CCC(=O)O)C(=O)N[C@@H](CCC(N)=O)C(=O)N[C@@H](Cc1ccccc1)C(=O)N[C@@H](CC(C)C)C(=O)N[C@@H](Cc1ccc(O)cc1)C(=O)N[C@@H](Cc1c[nH]cn1)C(=O)N[C@@H](CC(C)C)C(=O)N[C@@H](CC(C)C)C(=O)N[C@@H](CO)C(=O)N[C@@H](Cc1ccccc1)C(=O)N[C@@H](CC(N)=O)C(=O)N[C@@H](C)C(=O)N[C@H](C(N)=O)C(C)C` [wt-R6IP] (Ac-DDEKEQFLYHLLSFNAV-NH2; N-terminus and C-terminus assumed): the “Competition with labelled peptide 25 (in words)” value at Rab8a6-176(GppNHp) is on record as “does not compete with peptide 25”.

B1: Rab8a 6-176 (protein)
chain: DYLFKLLLIGDSGVGKTCVLFRFSEDAFNSTFISTIGIDFKIRTIELDGKRIKLQIWDTAGQERFRTITTAYYRGAMGIMLVYDITNEKSFDNIRNWIRNIEEHASADVEKMILGNKCDVNDKRQVSKERGEKLALDYGIKFMETSAKANINVENAFFTLARDIKAKMDKK
modifications: GppNHp-bound Rab8a; bicyclic alkyne/olefin crosslinked StRIP3 derivative, fluorescein-PEG label
Turning to B1, the affinity with peptide 28, expressed as Kd, was 9.6 µM.

As a reminder, the IC50 is the point on the concentration scale where inhibition reaches its midpoint. A higher IC50 goes with weaker potency in that assay. Usually Kd stands for a measure of binding affinity in units of concentration. Lower therefore signals tighter binding.
